Tested on: HBV
Experiment: HBV infection in HepG2-NTCP cells (HBeAg AlphaLISA in supernatants)
Assay type: cell-based
Conditions: HBV infection of HepG2-NTCP cells; HBeAg in supernatants at day 8 post infection; read-out: Cellular EC50
In short: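 Readout was day-8 supernatant HBeAg by AlphaLISA, with EC50 set against DMSO controls and binned A<0.1 μM, B 0.1-1 μM, C>1 μM. Compounds were added 2 h before HBV (2000 GE/cell, 4% PEG, 0.5% DMSO) to HepG2-NTCP A3 cells; from day 1 medium held 2.5% DMSO.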

Structure (SMILES)	EC50 [nM]
Cc1ccc(C(=O)O)c(C)c1-c1cc2c(cc1Cl)N(c1ccccc1)C[C@@H](C1CCCCC1)N(C)S2(=O)=O [Example 147, 3-((3R)-7-chloro-3-cyclohexyl-2-methyl-1,1-dioxido-5-phenyl-2,3,4,5-tetrahydrobenzo[f][1,2,5]thiadiazepin-8-yl)-2,4-dimethylbenzoic acid]	> 1000

Same assay, conditions: Hepatitis B virus, 192 h; HBV infection of HepG2-NTCP cells; HBeAg in supernatants at day 8 post infection; read-out: Cellular EC50

Structure (SMILES)	EC50 [nM]
Cc1c(C(=O)O)cccc1-c1cc2c(cc1Cl)N(c1ccccc1)C[C@@H](C1CCCCC1)N(C)S2(=O)=O [Example 144, (R)-3-(7-chloro-3-cyclohexyl-2-methyl-1,1-dioxido-5-phenyl-2,3,4,5-tetrahydrobenzo[f][1,2,5]thiadiazepin-8-yl)-2-methylbenzoic acid]	> 1000
Cc1ccc(C(=O)O)cc1-c1cc2c(cc1Cl)N(c1ccccc1)C[C@@H](C1CCCCC1)N(C)S2(=O)=O [Example 145, (R)-3-(7-chloro-3-cyclohexyl-2-methyl-1,1-dioxido-5-phenyl-2,3,4,5-tetrahydrobenzo[f][1,2,5]thiadiazepin-8-yl)-4-methylbenzoic acid]	> 1000
Cc1ccc(C(=O)O)c(C)c1-c1cc2c(cc1Cl)N(c1ccccc1)C[C@@H](C1CCCCC1)N(C)S2(=O)=O [Example 146, 3-((3R)-7-chloro-3-cyclohexyl-2-methyl-1,1-dioxido-5-phenyl-2,3,4,5-tetrahydrobenzo[f][1,2,5]thiadiazepin-8-yl)-2,4-dimethylbenzoic acid]	> 1000
CN1[C@H](C2CCCCC2)CN(c2ccccc2)c2cc(Cl)c(-c3cccc(C(=O)O)c3O)cc2S1(=O)=O [Example 148]	100 to 1000
CN1[C@H](C2CCCCC2)CN(c2ccccc2)c2cc(Cl)c(-c3cccc(C(=O)O)c3F)cc2S1(=O)=O [Example 149, (R)-3-(7-chloro-3-cyclohexyl-2-methyl-1,1-dioxido-5-phenyl-2,3,4,5-tetrahydrobenzo[f][1,2,5]thiadiazepin-8-yl)-2-fluorobenzoic acid]	< 100
CN1[C@H](C2CCCCC2)CN(c2ccccc2)c2cc(Cl)c(-c3cc(C(=O)O)ccc3F)cc2S1(=O)=O [Example 150, (R)-3-(7-chloro-3-cyclohexyl-2-methyl-1,1-dioxido-5-phenyl-2,3,4,5-tetrahydrobenzo[f][1,2,5]thiadiazepin-8-yl)-4-fluorobenzoic acid]	< 100
CN1[C@H](C2CCCCC2)CN(c2ccccc2)c2cc(Cl)c(-c3cc(C(=O)O)ccc3Cl)cc2S1(=O)=O [Example 151, (R)-4-chloro-3-(7-chloro-3-cyclohexyl-2-methyl-1,1-dioxido-5-phenyl-2,3,4,5-tetrahydrobenzo[f][1,2,5]thiadiazepin-8-yl)benzoic acid]	100 to 1000
CN1[C@H](C2CCCCC2)CN(c2ccccc2)c2cc(Cl)c(-c3cccc(C(=O)O)c3Cl)cc2S1(=O)=O [Example 152, (R)-2-chloro-3-(7-chloro-3-cyclohexyl-2-methyl-1,1-dioxido-5-phenyl-2,3,4,5-tetrahydrobenzo[f][1,2,5]thiadiazepin-8-yl)benzoic acid]	> 1000
CN1[C@H](C2CCCCC2)CN(c2ccccc2)c2cc(Cl)c(-c3cc4c(c(C(=O)O)c3)OCO4)cc2S1(=O)=O [Example 153, (R)-6-(7-chloro-3-cyclohexyl-2-methyl-1,1-dioxido-5-phenyl-2,3,4,5-tetrahydrobenzo[f][1,2,5]thiadiazepin-8-yl)benzo[d][1,3]dioxole-4-carboxylic acid]	< 100
CN1[C@H](C2CCCCC2)CN(c2ccccc2)c2cc(Cl)c(-c3cc4c(c(C(=O)O)c3)OC(F)(F)O4)cc2S1(=O)=O [Example 154, (R)-6-(7-chloro-3-cyclohexyl-2-methyl-1,1-dioxido-5-phenyl-2,3,4,5-tetrahydrobenzo[f][1,2,5]thiadiazepin-8-yl)-2,2-difluorobenzo[d][1,3]dioxole-4-carboxylic acid]	100 to 1000

Reference: US20240368096A1 (Enanta Pharmaceuticals, Inc., priority 2022, published 2024)
